Measurements reported in patent US20090297545A1, “IMMUNOMODULATORY DAIRY PEPTIDES AND USES THEREOF” (Universite Laval, priority 2008, published 2009).
Marks after values point to notes of the source that are not given here.

Tests used:
Format in all cases: cell-based, BALB/c mice
murine splenocytes [1] = assay: Ex vivo murine splenocytes proliferation assay (Alamar Blue), Example I; conditions: for Stimulation index, proliferation of murine splenocytes in the presence of Concavanalin A: ConA 0.5 μg/mL; for Stimulation index, proliferation of resting murine splenocytes: without ConA
Protocol: Ex vivo murine splenocytes proliferation assay. The splenocytes were isolated from 6- to 12-weeks-old female BALB/c mice (Charles River, St-Constant, QC, Canada) and cultured in the absence and presence of suboptimal concentration of ConA (0.5 μg/mL). The peptides were solubilized in complete RPMI medium, agitated overnight at 4° C. then the solutions were adjusted to pH 7. Thereafter, the peptide solutions were added at various final concentrations (10-2000 μg/mL, protein basis) to the wells of 96-well round-bottomed microplates, which were incubated at 37° C. at 80% relative humidity in a 5% CO2 atmosphere for 72 h (with ConA) or 96 h (without ConA). Cell proliferation was evaluated by the reduction of the fluorochrome Alamar Blue™ (BioSource international, Camarillo, Calif., USA), which was added into the wells for the last 24 h of the incubation periods. The fluorescence of the supernatants was monitored at an excitation wavelength of 560 nm and an emission wavelength of 590 nm using a fluorometer (Fluoroscan Ascent, Thermo Electron Inc., Milford, Mass., USA). The assays were performed in triplicate (three wells per sample) and data are expressed as stimulation indices (SI), and calculated using the following equations: […]

murine splenocytes [2] = assay: In vitro murine splenocyte proliferation assay (Alamar Blue), Example III
Protocol: In vitro murine splenocyte proliferation assay. The impact of whey peptides on splenocyte proliferation was assessed as follow. Spleens from 6-week-old female BALB/c mice (Charles River, St-Constant, QC, Canada) were removed, mechanically disrupted in complete RPMI-1640 medium (RPMI-1640 medium supplemented with 2 mmol L^−1 L-glutamine (Wisent, St-Bruno, QC, Canada), 10% foetal calf serum (FCS, Wisent), 50 μmol L^−1 mercaptoethanol (Sigma-Aldrich), and 100 μg mL^−1 of penicillin/streptomycin (Wisent), and then filtered through 70 μm cell strainer (BD Falcon, Bedford, Mass., USA) under aseptic conditions. Erythrocytes were lysed by osmotic shock using 0.87% NH4Cl (Sigma-Aldrich) for 2 min at 37° C., then cells were washed 3 times at 4° C. with complete RPMI. They were stained with 0.4% trypan blue (Celigro, Mediatech, Washington, D.C., USA) and counted using a Malassez chamber. The cell suspension was then adjusted to 1.25×10^6 viable cells mL^−1 in RPMI medium.
The cells (100 μL) were added to the wells of 96-well round-bottomed microplates containing 50 μL of RPMI, or 50 μL of peptide solutions. Various concentrations (10-2000 μg mL^−1) of the solutions, which were prepared in complete RPMI and adjusted to pH 7, were added to the wells. The same experiments were also performed in the presence of ConA (0.5 μg mL^−1) to evaluate the effects of the products on ConA-stimulated cells. The microplates with and without ConA were incubated for 72 h and 96 h, respectively. Cell proliferation was evaluated by the reduction of the fluorochrome Alamar Blue™ (BioSource international, Camarillo, Calif., USA), which was added to the wells (20 μL) for the last 24 h of the incubation periods. The fluorescence of the supernatants was monitored at an excitation wavelength of 544 nm and an emission wavelength of […] using a fluorometer (Fluoroscan Ascent, Thermo Electron Inc., Milford, Mass., USA). Data are expressed as a stimulation index (SI).

murine splenocytes [3] = assay: Cytokine profile of splenocyte supernatants, RayBio Mouse Cytokine Antibody Array; conditions: peptide 2000 μg/mL + ConA 0.5 μg/mL, 72 h; Cells + ConA = 1
Protocol: Cytokine analyses. After 72 hours, the supernatants from the splenocyte cultures with the cells, cells+ConA (0.5 μg/mL), and each of the peptides (2000 μg/mL) in the presence of ConA (0.5 μg/mL) were collected and stored at −20° C. until used for the cytokine detection assay. A cytokine profile analysis was performed by using the RayBio Mouse Cytokine Antibody Array G series 2 (RayBiotech, Inc., Norcross, Ga.), in order to obtain semi-quantitative levels of 32 different growth factors, cytokines and chemokines (Table 7).
Incubation protocol, signal detection, and interpretation of the data were performed according to manufacturer instructions. Results were expressed as the relative quantity of cytokines detected in the culture supernatants calculated according to the following equation: […]

murine splenocytes [4] = assay: Cytokine secretion in splenocyte culture supernatants by ELISA, Example I
Protocol: Cytokine analysis. The supernatants from 72 h-splenocytes cultures were collected and their cytokine content was measured. The optimal incubation times were determined from preliminary assays with peptide fractions. The levels of IL-4, IL-10 and IFN-γ were determined using commercial ELISA kits (BioLegend, San Diego, Calif., USA) according to the manufacturer's instructions. Interleukin-2 levels were also measured by ELISA using a commercial kit (BioSource International, Camarillo, Calif., USA) according to the manufacturer's instructions. The results are the means of four or more assays (three wells per sample). The detection limits for IL-2, IL-4, IL-10 and IFN-γ were <8.0, <1.0, <30.0 and <4.0 pg/mL, respectively.
Cytokine analysis were performed at concentration leading to optimal spleen cells proliferation of peptide β-Lg f139-148 (SEQ ID NO. 1) (2000 μg/mL) as reported in Tables 2 and 3. The sequence β-Lg f78-83 (SEQ ID NO. 10), resulting in no effect on the cytokine secretion of resting- and ConA-stimulated murine splenocytes (results not shown), was used as control at concentration of 10 μg/mL for statistical analysis. The effects of the selected peptide on cytokine secretion from splenocytes cultured in the absence and presence of 0.5 μg/mL of ConA are shown in Table 5.

[5] = splenocytes with ConA 0.5 μg mL^−1, peptide 2000 μg mL^−1
[6] = splenocytes without ConA, peptide 2000 μg mL^−1

| Substance | Stimulation index, proliferation of murine splenocytes in the presence of Concavanalin A (murine splenocytes [1]; peptide 10 μg mL^−1, 72 h) | Stimulation index, proliferation of resting murine splenocytes (murine splenocytes [1]; peptide 10 μg mL^−1, 96 h) | Stimulation index, proliferation of murine splenocytes in the presence of Concavanalin A (murine splenocytes [1]; peptide 100 μg mL^−1, 72 h) | Stimulation index, proliferation of resting murine splenocytes (murine splenocytes [1]; peptide 100 μg mL^−1, 96 h) | Stimulation index, proliferation of murine splenocytes in the presence of Concavanalin A (murine splenocytes [1]; peptide 500 μg mL^−1, 72 h) | Stimulation index, proliferation of resting murine splenocytes (murine splenocytes [1]; peptide 500 μg mL^−1, 96 h) | Stimulation index, proliferation of murine splenocytes in the presence of Concavanalin A (murine splenocytes [1]; peptide 1000 μg mL^−1, 72 h) | Stimulation index, proliferation of resting murine splenocytes (murine splenocytes [1]; peptide 1000 μg mL^−1, 96 h) | Stimulation index, proliferation of murine splenocytes in the presence of Concavanalin A (murine splenocytes [1]; peptide 2000 μg mL^−1, 72 h) | Stimulation index, proliferation of resting murine splenocytes (murine splenocytes [1]; peptide 2000 μg mL^−1, 96 h) | also measured |
| --- | --- | --- | --- | --- | --- | --- | --- | --- | --- | --- | --- |
| IDALNENK [β-Lg f84-91] | 2.20 | 0.99 | 2.27 | 1.08 | 2.24 | 1.20* | 2.18 | 1.22* | 2.16 | 1.27** | – |
| ALK (listed as Homo sapiens) [β-Lg f139-141] | – | – | – | – | – | – | – | – | – | – | Effect on splenocyte proliferation in the presence of ConA at higher concentrations (murine splenocytes [2]; ConA 0.5 μg/mL): lost their stimulating capacity; Concentration at which stimulation of resting cell proliferation becomes significant (murine splenocytes [2]; resting cells, dose-dependent up to 2000 μg/mL): 500 µg/mL; Relative quantity of IFN-γ in supernatant (murine splenocytes [3]): 1.0; Relative quantity of IL-2 in supernatant (murine splenocytes [3]): 1.7; Relative quantity of IL-3 in supernatant (murine splenocytes [3]): 0.7; Relative quantity of IL-4 in supernatant (murine splenocytes [3]): 1; Relative quantity of IL-17 in supernatant (murine splenocytes [3]): 1.1; Relative quantity of RANTES in supernatant (murine splenocytes [3]): 1.7; Relative quantity of VEGF in supernatant (murine splenocytes [3]): 0.9 |
| VAGTWY (UniProt P02754 31-36, looked up, fragment) [β-Lg f15-20] | 1.65 | 1.01 | 1.71 | 1.12* | 1.67 | 1.46** | 1.78 | 1.65** | 1.77 | 1.42** | – |
| RELKDLK [α-La f10-16] | 1.85 | 1.06 | 1.95 | 1.19 | 1.95 | 1.47** | 2.08 | 1.81** | 2.26** | 1.97** | – |
| ALKALPMHIR (listed as Homo sapiens) [β-Lg f139-148] | 2.28 | 1.08* | 2.24 | 1.17** | 2.36* | 1.35** | 2.62** | 1.53** | 2.73** | 1.77** | IFN-γ secretion in supernatant (murine splenocytes [4]; [5]): 717.5** pg mL^−1; IL-2 secretion in supernatant (murine splenocytes [4]; [5]): 15.8 pg/mL; IL-4 secretion in supernatant (murine splenocytes [4]; [5]): 3.0** pg mL^−1; IL-10 secretion in supernatant (murine splenocytes [4]; [5]): <30.0 pg/mL; IFN-γ secretion in supernatant (murine splenocytes [4]; [6]): 81.3** pg mL^−1; IL-2 secretion in supernatant (murine splenocytes [4]; [6]): 9.3 pg/mL; IL-4 secretion in supernatant (murine splenocytes [4]; [6]): <1.0 pg/mL; IL-10 secretion in supernatant (murine splenocytes [4]; [6]): <30.0 pg/mL |
| DAQSAPLR [β-Lg f33-40] | – | – | – | – | – | – | – | – | – | – | Relative quantity of IFN-γ in supernatant (murine splenocytes [3]): 0.7; Relative quantity of IL-2 in supernatant (murine splenocytes [3]): 0.6; Relative quantity of IL-3 in supernatant (murine splenocytes [3]): 0.1; Relative quantity of IL-4 in supernatant (murine splenocytes [3]): 0.7; Relative quantity of IL-17 in supernatant (murine splenocytes [3]): 0.6; Relative quantity of RANTES in supernatant (murine splenocytes [3]): 0.4; Relative quantity of VEGF in supernatant (murine splenocytes [3]): 0.8 |
| VLVLDTDYKKYLLF (listed as Homo sapiens) [β-Lg f92-105] | 1.92 | 1.00 | 1.92 | 1.07 | 2.27** | 1.15** | 2.37** | 1.31** | 2.69** | 1.55** | – |
| ALPMHIR (listed as Homo sapiens) [β-Lg f142-148] | 2.32 | 1.16 | 2.30 | 1.17 | 2.36 | 1.37** | 2.49** | 1.61** | 2.63** | 1.73** | – |
| EILLQK (UniProt P02754 71-76, looked up, fragment) [β-Lg f55-60] | 1.96 | 1.05 | 1.92 | 1.09 | 1.98 | 1.16 | 1.93 | 1.54** | 2.34** | 1.54** | – |
